Reference: ChEMBL document CHEMBL5376003, “Structure-Activity Relationship of FL118 Platform Position 7 Versus Position 9-Derived Compounds and Their Mechanism of Action and Antitumor Activity” (J Med Chem, 2023)
The source made the active and inactive calls. The rule behind the calls is not given here.

How the values were obtained:
HCT-116 [1] = experiment: Growth inhibition of human HCT-116 cells incubated for 48 hrs by MTT reagent based ELISA reader analysis; format: functional, cell-based; details: HCT-116, 48 h
HepG2 = experiment: Growth inhibition of human HepG2 cells incubated for 48 hrs by MTT reagent based ELISA reader analysis; format: functional, cell-based; details: HepG2, 48 h
MCF7 = experiment: Growth inhibition of human MCF7 cells incubated for 48 hrs by MTT reagent based ELISA reader analysis; format: functional, cell-based; details: MCF7, 48 h
A549 = experiment: Growth inhibition of human A549 cells incubated for 48 hrs by MTT reagent based ELISA reader analysis; format: functional, cell-based; details: A549, 48 h
HeLa = experiment: Growth inhibition of human HeLa cells incubated for 48 hrs by MTT reagent based ELISA reader analysis; format: functional, cell-based
PDX27454 [2] = experiment: Antitumor activity against human PDX27454 cells xenografted in SCID mouse model assessed as reduction in tumor volume at 2 mg/kg,po administrated once per week for 3 weeks; format: functional, organism-based
PDX27454 [3] = experiment: Antitumor activity against human PDX27454 cells xenografted in SCID mouse model assessed as reduction in tumor volume at 8 mg/kg,po administrated once per week for 3 weeks; format: functional, organism-based
PDX14244 [4] = experiment: Antitumor activity against human PDX14244 cells xenografted in SCID mouse model assessed as reduction in tumor volume at 2 mg/kg,po administrated once per week for 3 weeks; format: functional, organism-based
PDX14244 [5] = experiment: Antitumor activity against human PDX14244 cells xenografted in SCID mouse model assessed as reduction in tumor volume at 8 mg/kg,po administrated once per week for 3 weeks; format: functional, organism-based
HCT-116 [6] = experiment: Induction of apoptosis in human HCT-116 cells assessed as increase in intracellular ROS level incubated for 48 hrs by DCFH-DA staining based fluorescence microscopy; format: functional, cell-based
HCT-116 [7] = experiment: Induction of apoptosis in human HCT-116 cells assessed as increase in intracellular ROS level at 10 to 1000 nM incubated for 12 hrs by DCFH-DA staining based fluorescence microscopy; format: functional, cell-based; details: dose 10-1000 nM
HCT-116 [8] = experiment: Induction of apoptosis in human HCT-116 cells assessed as increase in intracellular ROS level at 10 to 1000 nM incubated for 4 to 8 hrs by DCFH-DA staining based fluorescence microscopy; format: functional, cell-based; details: dose 10-1000 nM, time 4-8 hrs
HCT-116 [9] = experiment: Inhibition of cell migration in human HCT-116 cells assessed as intercellular distance at 5 nM by inverted phase-contrast microscopic analysis (reference value: 2.5 +/- 0.7 millimeter); format: functional
HCT-116 [10] = experiment: Inhibition of cell migration in human HCT-116 cells assessed as intercellular distance at 5 nM incubated for 24 hrs by inverted phase-contrast microscopic analysis (reference value: 1 +/- 0.2 millimeter); format: functional
HCT-116 [11] = experiment: Inhibition of cell migration in human HCT-116 cells assessed as intercellular distance at 5 nM incubated for 48 hrs by inverted phase-contrast microscopic analysis; format: functional
HCT-116 [12] = experiment: Inhibition of cell migration in human HCT-116 cells assessed as scratch repair rate at 5 nM incubated for 48 hrs by inverted phase-contrast microscopic analysis; format: functional; parameters: scale not given: the % may be the effect or the level left
[13] = target: T1, DNA topoisomerase 1 (Homo sapiens) (UniProt P11387); experiment: Inhibition of topoisomerase 1 (unknown origin) assessed as relaxation of supercoiled plasmid pBR322 DNA at 25 to 100 uM incubated for 30 mins by ethidium bromide staining based agarose gel electrophoresis; details: dose 25-100 µM
T1 sequence (whole entry): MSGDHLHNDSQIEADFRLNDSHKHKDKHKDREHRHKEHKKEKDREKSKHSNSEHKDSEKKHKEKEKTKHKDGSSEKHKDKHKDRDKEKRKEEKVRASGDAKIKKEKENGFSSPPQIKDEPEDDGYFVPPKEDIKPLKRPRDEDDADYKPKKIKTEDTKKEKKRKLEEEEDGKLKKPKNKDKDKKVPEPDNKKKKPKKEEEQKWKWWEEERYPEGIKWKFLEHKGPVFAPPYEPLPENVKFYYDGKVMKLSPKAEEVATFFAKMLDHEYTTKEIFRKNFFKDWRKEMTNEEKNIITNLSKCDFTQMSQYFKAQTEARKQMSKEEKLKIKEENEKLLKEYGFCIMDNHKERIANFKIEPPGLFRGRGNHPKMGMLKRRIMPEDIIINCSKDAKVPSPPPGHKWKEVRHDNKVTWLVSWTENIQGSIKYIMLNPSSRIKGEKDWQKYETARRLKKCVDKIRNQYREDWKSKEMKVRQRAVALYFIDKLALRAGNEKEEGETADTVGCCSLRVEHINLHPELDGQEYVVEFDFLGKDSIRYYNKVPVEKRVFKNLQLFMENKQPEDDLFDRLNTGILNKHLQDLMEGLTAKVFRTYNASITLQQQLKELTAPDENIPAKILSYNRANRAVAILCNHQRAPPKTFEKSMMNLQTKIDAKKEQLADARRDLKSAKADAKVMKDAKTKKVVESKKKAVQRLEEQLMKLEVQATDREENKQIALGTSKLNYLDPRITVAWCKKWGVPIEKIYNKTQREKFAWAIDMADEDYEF

HCT-116 [14] = experiment: Induction of cell cycle arrest in human HCT-116 cells assessed as accumulation of cells at S phase at 2.5 to 10 nM incubated for 48 hrs by Annexin V-FITC/PI staining based flow cytometry assay; format: functional; details: dose 2.5-10 nM
HCT-116 [15] = experiment: Induction of cell cycle arrest in human HCT-116 cells assessed as accumulation of cells at G2/M phase at 2.5 to 10 nM incubated for 48 hrs by Annexin V-FITC/PI staining based flow cytometry assay; format: functional; details: dose 2.5-10 nM
HCT-116 [16] = experiment: Induction of apoptosis in human HCT-116 cells at 2.5 to 10 nM incubated for 48 hrs by Annexin V-FITC/PI staining based flow cytometry assay; format: functional, cell-based; details: dose 2.5-10 nM
HCT-116 [17] = experiment: Induction of apoptosis in human HCT-116 cells assessed as downregulation of Survivin protein expression incubated for 48 hrs by Western blotting analysis; format: functional, cell-based
HCT-116 [18] = experiment: Induction of apoptosis in human HCT-116 cells assessed as downregulation of XIAP protein expression incubated for 48 hrs by Western blotting analysis; format: functional, cell-based
HCT-116 [19] = experiment: Induction of apoptosis in human HCT-116 cells assessed as downregulation of MCL-1 protein expression incubated for 48 hrs by Western blotting analysis; format: functional, cell-based

Compound | IC50 (HCT-116 [1]) [µM] | IC50 (HepG2) [µM] | IC50 (MCF7) [µM] | IC50 (A549) [µM] | IC50 (HeLa) [µM] | also measured
CC[C@@]1(O)C(=O)OCc2c1cc1n(c2=O)Cc2cc3c(-c4cccc(C)c4)c4c(cc3nc2-1)OCO4 | 0.478 | 0.2 | 0.132 | > 1 | 0.0326 | Activity (PDX27454 [2]): Active; Activity (PDX27454 [3]): Active; Activity (PDX14244 [4]): Active; Activity (PDX14244 [5]): Active
CC[C@@]1(O)C(=O)OCc2c1cc1n(c2=O)Cc2cc3c(-c4ccc(C(F)(F)F)cc4)c4c(cc3nc2-1)OCO4 | 0.934 | > 1 |  | 0.803 | > 1 | Activity (HCT-116 [6]): Dose-Dependent Effect
CC[C@@]1(O)C(=O)OCc2c1cc1n(c2=O)Cc2cc3c(-c4ccc([Si](C)(C)C)cc4)c4c(cc3nc2-1)OCO4 | 0.253 | 0.176 | 0.104 | 0.0858 | 0.161 | Activity (HCT-116 [6]): Dose-Dependent Effect; Activity (PDX27454 [2]): Active; Activity (PDX27454 [3]): Active; Activity (PDX14244 [4]): Active; Activity (PDX14244 [5]): Active
CC[C@@]1(O)C(=O)OCc2c1cc1n(c2=O)Cc2cc3c(-c4ccc(OC(C)C)cc4)c4c(cc3nc2-1)OCO4 | 0.948 | 0.91 | 0.601 | 0.142 | 0.152 | Activity (HCT-116 [6]): Dose-Dependent Effect; Activity (PDX27454 [2]): Active; Activity (PDX27454 [3]): Active; Activity (PDX14244 [4]): Active; Activity (PDX14244 [5]): Active
CC[C@@]1(O)C(=O)OCc2c1cc1n(c2=O)Cc2c-1nc1cc3c(cc1c2-c1ccc(C)c(C)c1)OCO3 | 0.0223 | 0.064 | 0.0453 | 0.0221 | 0.364 | 
CC[C@@]1(O)C(=O)OCc2c1cc1n(c2=O)Cc2c-1nc1cc3c(cc1c2-c1ccc(C(F)(F)F)cc1)OCO3 | 0.0408 | 0.0866 | 0.0471 | 0.0789 | 0.0495 | Activity (HCT-116 [6]): Dose-Dependent Effect; Activity (HCT-116 [7]): Active; Activity (HCT-116 [8]): Active; Activity (HCT-116 [9]): 2.6 mm; Activity (HCT-116 [10]): 1.5 mm; Activity (HCT-116 [11]): 0.8 mm; Activity (HCT-116 [12]): 69.2%; Activity (PDX27454 [2]): Active; Activity (PDX27454 [3]): Active; Activity (PDX14244 [4]): Active; Activity (PDX14244 [5]): Active; Topoisomerase 1 inhibition [13]: Active; Activity (HCT-116 [14]): Active; Activity (HCT-116 [15]): Active; Activity (HCT-116 [16]): Active; Activity (HCT-116 [17]): Active; Activity (HCT-116 [18]): Active; Activity (HCT-116 [19]): Active
CC[C@@]1(O)C(=O)OCc2c1cc1n(c2=O)Cc2cc3c(-c4cc(C)cc(C)c4)c4c(cc3nc2-1)OCO4 | 0.709 | 0.292 | 0.16 | 0.107 | 0.115 | 
CC[C@@]1(O)C(=O)OCc2c1cc1n(c2=O)Cc2c-1nc1cc3c(cc1c2-c1cccc(OC)c1)OCO3 | 0.0485 | 0.0148 | 0.0958 | 0.0214 | 0.0883 | 
CCCCc1ccc(-c2c3c(nc4cc5c(cc24)OCO5)-c2cc4c(c(=O)n2C3)COC(=O)[C@]4(O)CC)cc1 | 0.513 | > 1 | 0.0605 | 0.0549 | 0.115 | 
CC[C@@]1(O)C(=O)OCc2c1cc1n(c2=O)Cc2cc3c(-c4cccc(OC(C)C)c4)c4c(cc3nc2-1)OCO4 | 0.183 | 0.161 | 0.149 | 0.149 | 0.161 | 
CC[C@@]1(O)C(=O)OCc2c1cc1n(c2=O)Cc2cc3c(-c4ccc5c(c4)OCO5)c4c(cc3nc2-1)OCO4 | 0.0592 | 0.351 | 0.0326 | 0.111 | 0.0325 | 
CCOc1ccc(-c2c3c(cc4nc5c(cc24)Cn2c-5cc4c(c2=O)COC(=O)[C@]4(O)CC)OCO3)cc1 | 0.176 | > 1 | > 1 | 0.296 | > 1 | 
CC[C@@]1(O)C(=O)OCc2c1cc1n(c2=O)Cc2cc3c(-c4ccc(OC)cc4)c4c(cc3nc2-1)OCO4 | 0.163 | 0.527 | 0.161 | 0.163 | > 1 | 
CC[C@@]1(O)C(=O)OCc2c1cc1n(c2=O)Cc2c-1nc1cc3c(cc1c2-c1ccc([Si](C)(C)C)cc1)OCO3 | 0.0563 | 0.074 | 0.863 | 0.321 | > 1 | 
